Laboratory results taken from US20260306491A1, “EGFR INHIBITOR FOR TREATING CANCERS COMPRISING ATYPICAL EGFR MUTATIONS” (ORIC Pharmaceuticals, Inc., priority 2023, published 2026).

Experiment: Clinical study in NSCLC subjects: treatment-related adverse events (Example 10)
Type: in vivo, human
Conditions: oral hemifumarate
Experimental: A clinical study was conducted using Compound I in human subjects having non-small cell lung cancer (NSCLC) comprising EGFR exon 20 insertion mutations, HER2 exon 20 insertion mutations, or HER2 amplification or overexpression. A total of 50 human subjects having non-small cell lung cancer comprising one or more EGFR exon 20 insertion mutations, HER2 exon 20 insertion mutations, or HER2 amplification or overexpression were enrolled in the study as of Jul. 31, 2023 with data collected as of Sep. 26, 2023. The subjects were enrolled into one of ten dosing cohorts that were each orally administered Compound I in the form of a hemifumarate salt as shown in Table 13 (QD=once per day; BID=twice per day).
The TRAEs that occurred in equal to or greater than 10% of subjects in the study are set forth in Tables 15 to 18 (TDD=total daily dose; n=number; N/A=not applicable; the term rash includes the following terms: acne, dermatitis, dermatitis acneiform, eczema, hand dermatitis, and rash).

C=CC(=O)Nc1cc(Nc2cc(N3OCC[C@@H]3c3cc(F)cc(F)c3)ncn2)c(OC)cc1N1CCC(N2CCN(C3CC3)CC2)CC1 [Compound I, N-[2-[4-(4-cyclopropyl-1-piperazinyl)-1-piperidinyl]-5-[[6-[(3R)-3-(3,5-difluorophenyl)-2-isoxazolidinyl]-4-pyrimidinyl]amino]-4-methoxyphenyl]-2-propenamide]
Dose reductions and discontinuations: infrequent dose reductions and discontinuations | Decreased appetite, Grade 1 (45 mg-60 mg TDD (n = 23)): (22) % | Decreased appetite, Grade 1, number of subjects (45 mg-60 mg TDD (n = 23)): 5 n | Decreased appetite, Grade 2 (45 mg-60 mg TDD (n = 23)): (4) % | Decreased appetite, Grade 2, number of subjects (45 mg-60 mg TDD (n = 23)): 1 n | Diarrhea, Grade 1 (45 mg-60 mg TDD (n = 23)): (30) % | Diarrhea, Grade 1, number of subjects (45 mg-60 mg TDD (n = 23)): 7 n | Diarrhea, Grade 2 (45 mg-60 mg TDD (n = 23)): (9) % | Diarrhea, Grade 2, number of subjects (45 mg-60 mg TDD (n = 23)): 2 n | Diarrhea, Grade 3 (45 mg-60 mg TDD (n = 23)): 9% | Diarrhea, Grade 3, number of subjects (45 mg-60 mg TDD (n = 23)): 2 n | Dose discontinuations (45 mg-60 mg TDD (n = 23)): 4% | Dose discontinuations, number (45 mg-60 mg TDD (n = 23)): 1 n | Dose reductions (45 mg-60 mg TDD (n = 23)): 13% | Dose reductions, number (45 mg-60 mg TDD (n = 23)): 3 n | Nausea, Grade 1 (45 mg-60 mg TDD (n = 23)): (9) % | Nausea, Grade 1, number of subjects (45 mg-60 mg TDD (n = 23)): 2 n | Nausea, Grade 2 (45 mg-60 mg TDD (n = 23)): (9) % | Nausea, Grade 2, number of subjects (45 mg-60 mg TDD (n = 23)): 2 n | Paronychia, Grade 1 (45 mg-60 mg TDD (n = 23)): (17) % | Paronychia, Grade 1, number of subjects (45 mg-60 mg TDD (n = 23)): 4 n | Paronychia, Grade 2 (45 mg-60 mg TDD (n = 23)): (17) % | Paronychia, Grade 2, number of subjects (45 mg-60 mg TDD (n = 23)): 4 n | Pruritis, Grade 1 (45 mg-60 mg TDD (n = 23)): (17) % | Pruritis, Grade 1, number of subjects (45 mg-60 mg TDD (n = 23)): 4 n | Pruritis, Grade 2 (45 mg-60 mg TDD (n = 23)): (9) % | Pruritis, Grade 2, number of subjects (45 mg-60 mg TDD (n = 23)): 2 n | Pruritis, Grade 3 (45 mg-60 mg TDD (n = 23)): 4% | Pruritis, Grade 3, number of subjects (45 mg-60 mg TDD (n = 23)): 1 n | Rash, Grade 1 (45 mg-60 mg TDD (n = 23)): (26) % | Rash, Grade 1, number of subjects (45 mg-60 mg TDD (n = 23)): 6 n | Rash, Grade 2 (45 mg-60 mg TDD (n = 23)): (26) % | Rash, Grade 2, number of subjects (45 mg-60 mg TDD (n = 23)): 6 n | Stomatitis, Grade 1 (45 mg-60 mg TDD (n = 23)): (9) % | Stomatitis, Grade 1, number of subjects (45 mg-60 mg TDD (n = 23)): 2 n | Stomatitis, Grade 2 (45 mg-60 mg TDD (n = 23)): (9) % | Stomatitis, Grade 2, number of subjects (45 mg-60 mg TDD (n = 23)): 2 n | Stomatitis, Grade 3 (45 mg-60 mg TDD (n = 23)): 4% | Stomatitis, Grade 3, number of subjects (45 mg-60 mg TDD (n = 23)): 1 n | Vomiting, Grade 1 (45 mg-60 mg TDD (n = 23)): (9) % | Vomiting, Grade 1, number of subjects (45 mg-60 mg TDD (n = 23)): 2 n | Decreased appetite, Grade 2 (<45 mg TDD (n = 18)): (6) % | Decreased appetite, Grade 2, number of subjects (<45 mg TDD (n = 18)): 1 n | Diarrhea, Grade 1 (<45 mg TDD (n = 18)): (11) % | Diarrhea, Grade 1, number of subjects (<45 mg TDD (n = 18)): 2 n | Diarrhea, Grade 2 (<45 mg TDD (n = 18)): (11) % | Diarrhea, Grade 2, number of subjects (<45 mg TDD (n = 18)): 2 n | Dose discontinuations (<45 mg TDD (n = 18)): 9% | Dose discontinuations, number (<45 mg TDD (n = 18)): 1 n | Dose reductions (<45 mg TDD (n = 18)): 18% | Dose reductions, number (<45 mg TDD (n = 18)): 2 n | Nausea, Grade 1 (<45 mg TDD (n = 18)): (6) % | Nausea, Grade 1, number of subjects (<45 mg TDD (n = 18)): 1 n | Paronychia, Grade 1 (<45 mg TDD (n = 18)): (6) % | Paronychia, Grade 1, number of subjects (<45 mg TDD (n = 18)): 1 n | Paronychia, Grade 2 (<45 mg TDD (n = 18)): (11) % | Paronychia, Grade 2, number of subjects (<45 mg TDD (n = 18)): 2 n | Pruritis, Grade 1 (<45 mg TDD (n = 18)): (11) % | Pruritis, Grade 1, number of subjects (<45 mg TDD (n = 18)): 2 n | Rash, Grade 1 (<45 mg TDD (n = 18)): (33) % | Rash, Grade 1, number of subjects (<45 mg TDD (n = 18)): 6 n | Rash, Grade 2 (<45 mg TDD (n = 18)): (22) % | Rash, Grade 2, number of subjects (<45 mg TDD (n = 18)): 4 n | Stomatitis, Grade 1 (<45 mg TDD (n = 18)): (22) % | Stomatitis, Grade 1, number of subjects (<45 mg TDD (n = 18)): 4 n | Stomatitis, Grade 2 (<45 mg TDD (n = 18)): (11) % | Stomatitis, Grade 2, number of subjects (<45 mg TDD (n = 18)): 2 n | Vomiting, Grade 1 (<45 mg TDD (n = 18)): (11) % | Vomiting, Grade 1, number of subjects (<45 mg TDD (n = 18)): 2 n | Decreased appetite, All Grades (all doses): (14) % | Decreased appetite, All Grades, number of subjects (all doses): 7 n | Diarrhea, All Grades (all doses): (40) % | Diarrhea, All Grades, number of subjects (all doses): 20 n | Dose discontinuations (all doses): (4) % | Dose discontinuations, number (all doses): 2 n | Dose reductions (all doses): (16) % | Dose reductions, number (all doses): 8 n | Nausea, All Grades (all doses): (16) % | Nausea, All Grades, number of subjects (all doses): 8 n | Paronychia, All Grades (all doses): (28) % | Paronychia, All Grades, number of subjects (all doses): 14 n | Pruritis, All Grades (all doses): (22) % | Pruritis, All Grades, number of subjects (all doses): 11 n | Rash, All Grades (all doses): (54) % | Rash, All Grades, number of subjects (all doses): 27 n | Stomatitis, All Grades (all doses): (30) % | Stomatitis, All Grades, number of subjects (all doses): 15 n | Vomiting, All Grades (all doses): (14) % | Vomiting, All Grades, number of subjects (all doses): 7 n | Treatment-related adverse events (TRAEs), grade (each dose level): Grade 1 and 2 treatment-related adverse events (TRAEs) at each dose level | Diarrhea, Grade 1 (≥75 mg TDD (n = 9)): 22% | Diarrhea, Grade 1, number of subjects (≥75 mg TDD (n = 9)): 2 n | Diarrhea, Grade 2 (≥75 mg TDD (n = 9)): 22% | Diarrhea, Grade 2, number of subjects (≥75 mg TDD (n = 9)): 2 n | Diarrhea, Grade 3 (≥75 mg TDD (n = 9)): 11% | Diarrhea, Grade 3, number of subjects (≥75 mg TDD (n = 9)): 1 n | Dose reductions (≥75 mg TDD (n = 9)): 33% | Dose reductions, number (≥75 mg TDD (n = 9)): 3 n | Nausea, Grade 1 (≥75 mg TDD (n = 9)): 11% | Nausea, Grade 1, number of subjects (≥75 mg TDD (n = 9)): 1 n | Nausea, Grade 2 (≥75 mg TDD (n = 9)): 11% | Nausea, Grade 2, number of subjects (≥75 mg TDD (n = 9)): 1 n | Nausea, Grade 3 (≥75 mg TDD (n = 9)): 11% | Nausea, Grade 3, number of subjects (≥75 mg TDD (n = 9)): 1 n | Paronychia, Grade 1 (≥75 mg TDD (n = 9)): 22% | Paronychia, Grade 1, number of subjects (≥75 mg TDD (n = 9)): 2 n | Paronychia, Grade 2 (≥75 mg TDD (n = 9)): 11% | Paronychia, Grade 2, number of subjects (≥75 mg TDD (n = 9)): 1 n | Pruritis, Grade 1 (≥75 mg TDD (n = 9)): 11% | Pruritis, Grade 1, number of subjects (≥75 mg TDD (n = 9)): 1 n | Pruritis, Grade 2 (≥75 mg TDD (n = 9)): 11% | Pruritis, Grade 2, number of subjects (≥75 mg TDD (n = 9)): 1 n | Rash, Grade 1 (≥75 mg TDD (n = 9)): 44% | Rash, Grade 1, number of subjects (≥75 mg TDD (n = 9)): 4 n | Rash, Grade 2 (≥75 mg TDD (n = 9)): 11% | Rash, Grade 2, number of subjects (≥75 mg TDD (n = 9)): 1 n | Stomatitis, Grade 1 (≥75 mg TDD (n = 9)): 22% | Stomatitis, Grade 1, number of subjects (≥75 mg TDD (n = 9)): 2 n | Stomatitis, Grade 2 (≥75 mg TDD (n = 9)): 22% | Stomatitis, Grade 2, number of subjects (≥75 mg TDD (n = 9)): 2 n | Vomiting, Grade 1 (≥75 mg TDD (n = 9)): 11% | Vomiting, Grade 1, number of subjects (≥75 mg TDD (n = 9)): 1 n | Vomiting, Grade 2 (≥75 mg TDD (n = 9)): 11% | Vomiting, Grade 2, number of subjects (≥75 mg TDD (n = 9)): 1 n | Vomiting, Grade 3 (≥75 mg TDD (n = 9)): 11% | Vomiting, Grade 3, number of subjects (≥75 mg TDD (n = 9)): 1 n
